US20210024981A1, “COMPOSITION FOR DETECTING DSRNAS, COMPRISING MEROCYANINE COMPOUND AND ISOMER THEREOF, AND METHOD FOR PROVIDING INFORMATION FOR DIAGNOSING CANCER, BY USING DSRNA EXPRESSION ANALYSIS” (KOREA ADVANCED INSTITUTE OF SCIENCE AND TECHNOLOGY, priority 2018, published 2021)
“Also recorded” adds a separate entry of the source.

Columns and labels:
[1] = system: HCT116 colorectal cancer cells; test: dsRNA absorbance change rate after 5-AZA-CdR treatment; assay type: cell-based; details: 5-AZA-CdR 500 nM 24 hours, days 0, 1, 3 and 5
Method: (§1) To compare the expression level of dsRNA between cancer cells and normal cells, total RNA was extracted by treating TRIsure reagents (Bioline) to 3 types of cancer cell lines (HeLa cervical cancer cells, HCT116 colorectal cancer cells and A549 lung cancer cells) and 2 types of normal cell lines (CCD-986sk cells and RPE-1 cells), respectively. The extracted total RNA (30 μg) was treated with RNase T1 (Worthington Inc.) in a volume of 1/10, and incubated at 37° C. for 30 minutes to remove ssRNA and rRNA. Then, dsRNA was purified using a phenol extraction method. The final concentration of the purified dsRNA was adjusted to 350 μM using tertiary distilled water, to which the spiropyran solution (12 μM, dissolved in tertiary distilled water) was added. After irradiating UV to the mixture, the rate of change in absorbance at 512 nm was measured for 2 minutes. The rate of change in absorbance was calculated in comparison with the control group using tertiary distilled water instead of dsRNA.
(§2) HCT116 colorectal cancer cells and HeLa cervical cancer cells were treated with 5-AZA-CdR (500 nM), respectively, and cultured for 24 hours. The medium was replaced with fresh medium and the cells were collected on days 0, 1, 3 and 5 to isolate dsRNA. The rate of change in absorbance of dsRNA in cancer cells was measured in the same manner as described in Experimental Example 9.

[2] = system: HeLa cervical cancer cells; test: as above; assay type: cell-based; details: 5-AZA-CdR 500 nM 24 hours, day 5 vs day 0
Method: as §1, §2

[3] = system: A375 melanoma cells; test: as above; assay type: cell-based; details: 5-AZA-CdR 500 nM, days 0-7
Method: as §1
(§3) In addition, PANC-1 pancreatic cancer cells, MCF-7 breast cancer cells, A549 lung cancer cells and A375 melanoma cells were treated with 5-AZA-CdR (500 nM), respectively, and cultured for 24 hours. The medium was replaced with fresh medium and the cells were collected on days 0, 1, 3, 5 and 7 to isolate dsRNA. The rate of change in absorbance of dsRNA in cancer cells was measured in the same manner as described in Example 1.

[4] = system: A549 lung cancer cells; test: as above; assay type: cell-based; details: 5-AZA-CdR 500 nM, days 0-7
Method: as §1, §3

[5] = system: MCF-7 breast cancer cells; test: as above; assay type: cell-based; details: 5-AZA-CdR 500 nM, day 7 compared to day 0
Method: as §1, §3

[6] = system: PANC-1 pancreatic cancer cells; test: as above; assay type: cell-based; details: 5-AZA-CdR 500 nM, day 7 compared to day 0
Method: as §1, §3

[7] = system: A375 melanoma cells; test: Degree of apoptosis by MTT assay; assay type: cell-based; details: 5-AZA-CdR 500 nM
Method: (§4) HCT116 colorectal cancer cells, PANC-1 pancreatic cancer cells, MCF-7 breast cancer cells, A549 lung cancer cells and A375 melanoma cells were treated with 5-AZA-CdR in the same manner as described in Experimental Example <10-1>, and the degree of apoptosis was measured by MTT assay.

[8] = system: A549 lung cancer cells; test: Degree of apoptosis by MTT assay; assay type: cell-based; details: 5-AZA-CdR 500 nM
Method: as §4

[9] = system: HCT116 colorectal cancer cells; test: Degree of apoptosis by MTT assay; assay type: cell-based; details: 5-AZA-CdR 500 nM
Method: as §4

[10] = system: MCF-7 breast cancer cells; test: Degree of apoptosis by MTT assay; assay type: cell-based; details: 5-AZA-CdR 500 nM
Method: as §4

[11] = system: PANC-1 pancreatic cancer cells; test: Degree of apoptosis by MTT assay; assay type: cell-based; details: 5-AZA-CdR 500 nM
Method: as §4

[12] = system: HCT116 colorectal cancer cells; test: Apoptosis observed under a microscope; assay type: cell-based; details: 5-AZA-CdR 500 nM, day 5
[13] = system: HeLa cervical cancer cells; test: Apoptosis observed under a microscope; assay type: cell-based; details: 5-AZA-CdR 500 nM, day 5
[14] = system: ERV (THE1B, MTL2B4, MLT1C49 and MER21C) in HCT116 colorectal cancer cells; test: RT-PCR (qPCR) to confirm ERV expression; assay type: cell-based; details: 5-AZA-CdR 500 nM
Method: According to a recent study, 5-AZA-CdR has been reported to promote apoptosis by increasing untranslated RNA called ERV (endogenous retroviral element), the dsRNA. Thus, whether the expression of ERV ([…], MTL2B4, MLT1C49 and MER21C genes) was increased by 5-AZA-CdR treatment was investigated.
Total RNA was isolated from the HCT116 colorectal cancer cells treated with 5-AZA-CdR in the same manner as described in Experimental Example <10-1>, to which DNase I was treated, and then cDNA was synthesized using RevertAid reverse transcriptase (Thermo Fisher Scientific). Using the synthesized cDNA as a template, qPCR was performed with the primers in Table 1 below.

[15] = system: dsRNA (20 bp poly GC and poly AU); test: Binding of spiropyran (SP) or merocyanine (MC) and dsRNA, UV-Vis spectrometer; details: 12 μM solution, 20 bp poly GC and poly AU added, MC after 254 nm UV for 5 minutes
Method: The interaction of spiropyran (SP) or merocyanine (MC) with dsRNA was confirmed using a UV-Vis spectrometer. The spiropyran produced in Example 1 was prepared as a spiropyran solution (12 μM), and dsRNA was prepared by ordering 20 bp poly GC and poly AU from Bioneer Co., Ltd., respectively. After adding 200 μM of poly GC and poly AU to the spiropyran solution, spectral results were obtained using a UV-Vis spectrometer. The spiropyran produced in Example 1 was prepared as a spiropyran solution (12 μM), and dsRNA was prepared by ordering 20 bp poly GC and poly AU from Bioneer Co., Ltd., respectively. After irradiating 254 nm UV to the spiropyran solution for 5 minutes, poly GC and poly AU were added, respectively. Then, spectral results were obtained using a UV-Vis spectrometer.

[16] = system: poly AU and poly GC; test: Effect of dsRNA on reversibility of SP and MC; assay type: physicochemical; details: 200 μM poly AU or poly GC in sodium ion buffer; UV and 420 nm light alternately, 5 cycles at 1 minute intervals
Method: The SP and MC in the isomer relationship can be converted reversibly to each other by irradiating UV or visible light. To confirm the effect of dsRNA on the reversibility of SP-MC, SP and 200 μM poly AU and poly GC were added to sodium ion buffer, respectively, and absorbance was measured by alternately irradiating the mixture with UV and 420 nm […] light in 5 cycles at 1 minute intervals. At this time, water was used instead of RNA as the control.

| SMILES | rate of change in absorbance at 512 nm (dsRNA expression) [1] | rate of change in absorbance at 512 nm (dsRNA expression) [2] | dsRNA expression (rate of change in absorbance) [3] | dsRNA expression (rate of change in absorbance) [4] | dsRNA expression (rate of change in absorbance) [5] | dsRNA expression (rate of change in absorbance) [6] | growth compared to untreated control [7] | growth decreased compared to untreated control [8] | growth reduced compared to untreated control [9] | growth decreased compared to untreated control [10] | growth decreased compared to untreated control [11] | apoptosis [12] | apoptosis [13] | expression level of MER21C, increase compared to day 0 ([14]; day 5) | expression levels of THE1B, MTL2B4, MLT1C49 and MER21C ([14]; days 0 and 1) | expression levels of THE1B, MTL2B4, MLT1C49 and MER21C ([14]; from day 3) | binding to dsRNA (change in UV-Vis absorbance spectrum) [15] | binding to dsRNA (change in UV-Vis absorbance spectrum) ([15]; listed as spiropyran) | reversibility of SP-MC [16] |
| --- | --- | --- | --- | --- | --- | --- | --- | --- | --- | --- | --- | --- | --- | --- | --- | --- | --- | --- | --- |
| Nc1ncn([C@H]2C[C@H](O)[C@@H](CO)O2)c(=O)n1 [Example 5-AZA-CdR, 5-aza-2′-deoxycytidine] | increased from day 3; also recorded: gradually increased with time | almost unchanged; also recorded: almost similar to that of day 0 | no change; also recorded: little change | no change; also recorded: little change | slightly increased; also recorded: slight increase | slightly increased; also recorded: slight increase | not reduced | about 10% | about 40% | about 20% | about 20% | apoptosis induced by 5-AZA-CdR was observed | apoptosis was not observed | 100 times | almost unchanged | increased; also recorded: began to increase from day 3 | – | – | – |
| CC1(C)c2ccccc2N(CCC[N+](C)(C)C)C12C=Cc1cc([N+](=O)[O-])ccc1O2 (stereo not shown) [SP, 1′-(3″-trimethylammoniopropyl)-3′,3′-dimethyl-6-nitrospiro[(2H)-1-benzopyran-2,2′-indoline]iodide] | – | – | – | – | – | – | – | – | – | – | – | – | – | – | – | – | did not bind to dsRNA | not combined with dsRNA | maintained independently from the presence or absence of dsRNA |
